Laboratory results published in publication PMC6163080 (Journal of chromatography. B, Analytical technologies in …, 2018).

Experiments:
[1] = Stability of CLBQ14 in rat plasma samples; assay type: in vitro ADME, Sprague Dawley rat
human MetAPs = conditions: in vitro; ref [2]; cited from earlier work
MtMetAP1a = conditions: high-throughput screening; ref [2], [17]; cited from earlier work
aged non-growing Mtb = conditions: in vitro; ref [2]; cited from earlier work
replicating Mtb = conditions: in vitro; ref [2]; cited from earlier work
MtMetAP1c = conditions: high-throughput screening; ref [2], [17]; cited from earlier work
[2] = Stability of CLBQ14 in rat urine samples; assay type: in vitro ADME, Sprague Dawley rat
[3] = Pharmacokinetic study, single IV bolus in adult male Sprague Dawley rats; assay type: in vivo; conditions: for AUC(0-inf) / C0 / clearance / half-life / Vd: male, Sprague Dawley, rat, plasma, iv
[4] = Sprague Dawley, rat, Freeze-thaw cycle stability, mean recovery ± SD
[5] = Sprague Dawley, rat, Processed sample or auto-sampler stability, mean recovery ± SD, No IS
[6] = Sprague Dawley, rat, Processed sample or auto-sampler stability, mean recovery ± SD, With IS
[7] = Sprague Dawley, rat, Short-term (bench-top) stability, mean recovery ± SD
[8] = 2 mg/kg single IV bolus, male SD rats, n = 4, mean ± SD
[9] = 5 mg/kg single IV bolus, male SD rats, n = 3, mean ± SD
[10] = 10 mg/kg single IV bolus, male SD rats, n = 4, mean ± SD

Oc1c(Br)cc(Cl)c2cccnc12 [CLBQ14, 7-bromo-5-chloroquinolin-8-ol]
recovery at 2.5 ng/mL [1, 4]: 104 ± 4.72%
recovery at 400 ng/mL [1, 4]: 95.9 ± 1.89%
recovery at 800 ng/mL [1, 4]: 96.8 ± 1.25%
recovery at 14 days ([1]; Sprague Dawley, rat, Long-term stability, mean recovery ± SD): ≤ 91.3%
recovery ([1]; Sprague Dawley, rat, Mean recovery after three freeze-thaw cycles): > 95.9%
recovery at 2 h [1, 5]: 97.8 ± 1.11%
recovery at 4 h [1, 5]: 97.1 ± 5.42%
recovery at 6 h [1, 5]: 95.5 ± 6.69%
recovery at 2 h [1, 6]: 95.9 ± 1.87%
recovery at 4 h [1, 6]: 94.7 ± 4.2%
recovery at 6 h [1, 6]: 97.3 ± 5.55%
recovery at 2 h [1, 7]: 91.6 ± 4.06%
recovery at 4 h [1, 7]: 95.1 ± 3.24%
recovery at 6 h [1, 7]: 93.7 ± 1.17%
Stability at room temperature ([1]; rat plasma samples, room temperature): stable for up to 6 hours
Selectivity for both MtMetAPs over human MetAPs (human MetAPs): great selectivity
Inhibition of MtMetAP1a (MtMetAP1a): potent and selective inhibitor
Potency against aged non-growing Mtb (aged non-growing Mtb): increased potency
Potency against replicating Mtb (replicating Mtb): great potency
Inhibition of MtMetAP1c (MtMetAP1c): potent and selective inhibitor
Stability at room temperature [2]: stable for up to 6 hours
A (coefficient of distributional phase) [3, 8]: 1.39 ± 0.27 mg/L
B (coefficient of terminal phase) [3, 8]: 0.05 ± 0.00 mg/L
A (coefficient of distributional phase) [3, 9]: 3.14 ± 0.42 mg/L
B (coefficient of terminal phase) [3, 9]: 0.09 ± 0.04 mg/L
A (coefficient of distributional phase) [3, 10]: 5.09 ± 1.36 mg/L
B (coefficient of terminal phase) [3, 10]: 0.17 ± 0.07 mg/L
Administered dose excreted unchanged in urine ([3]; after 24 hr, IV bolus, male SD rats): 0.19 ± 0.04%
AUC(0-inf) ([3]; 2 mg/kg): 1.36 ± 0.06 µg·h/mL
C0 ([3]; 2 mg/kg): 1.44 ± 0.27 µg/mL
clearance ([3]; 2 mg/kg, Cl (total clearance), 2 mg/kg single IV bolus, male SD rats, n = 4, mean ± SD): 1.48 L/h/kg
half-life ([3]; 2 mg/kg, T1/2α (half-life of distributional phase), 2 mg/kg single IV bolus, male SD rats, n = 4, mean ± SD): 0.16 ± 0.04 h
half-life ([3]; 2 mg/kg, T1/2β (elimination half-life of the beta elimination phase), 2 mg/kg single IV bolus, male SD rats, n = 4, mean ± SD): 14.8 ± 0.53 h
Vd ([3]; 2 mg/kg, Vss (volume of distribution at steady state), 2 mg/kg single IV bolus, male SD rats, n = 4, mean ± SD): 24.3 ± 1.28 L/kg
AUC(0-inf) ([3]; 5 mg/kg): 1.96 ± 0.4 µg·h/mL
C0 ([3]; 5 mg/kg): 3.24 ± 0.44 µg/mL
clearance ([3]; 5 mg/kg, Cl (total clearance), 5 mg/kg single IV bolus, male SD rats, n = 3, mean ± SD): 2.62 L/h/kg
half-life ([3]; 5 mg/kg, T1/2α (half-life of distributional phase), 5 mg/kg single IV bolus, male SD rats, n = 3, mean ± SD): 0.17 ± 0.03 h
half-life ([3]; 5 mg/kg, T1/2β (elimination half-life of the beta elimination phase), 5 mg/kg single IV bolus, male SD rats, n = 3, mean ± SD): 10 ± 4.6 h
Vd ([3]; 5 mg/kg, Vss (volume of distribution at steady state), 5 mg/kg single IV bolus, male SD rats, n = 3, mean ± SD): 23.2 ± 11.5 L/kg
AUC(0-inf) ([3]; 10 mg/kg): 4.83 ± 0.74 µg·h/mL
C0 ([3]; 10 mg/kg): 5.27 ± 1.43 µg/mL
clearance ([3]; 10 mg/kg, Cl (total clearance), 10 mg/kg single IV bolus, male SD rats, n = 4, mean ± SD): 2.11 L/h/kg
clearance ([3]; 10 mg/kg, Estimated total plasma clearance, across the 3 groups (2, 5 and 10 mg/kg IV bolus), male SD rats): ≤ 2.62 L/h/kg
Vd ([3]; 10 mg/kg, Steady state volume of distribution, across the 3 groups (2, 5 and 10 mg/kg IV bolus), male SD rats): ≤ 25.3 L/kg
half-life ([3]; 10 mg/kg, T1/2α (half-life of distributional phase), 10 mg/kg single IV bolus, male SD rats, n = 4, mean ± SD): 0.25 ± 0.09 h
half-life ([3]; 10 mg/kg, T1/2β (elimination half-life of the beta elimination phase), 10 mg/kg single IV bolus, male SD rats, n = 4, mean ± SD): 13.4 ± 3.59 h
Vd ([3]; 10 mg/kg, Vss (volume of distribution at steady state), 10 mg/kg single IV bolus, male SD rats, n = 4, mean ± SD): 27.3 ± 11.6 L/kg
